Experimental data as given in publication PMC10288869, “Release of an encrypted, highly potent ACE-inhibitory peptide by enzymatic hydrolysis of moth bean (Vigna aconitifolia) protein” (Frontiers in Nutrition, 2023).
Marks after values point to notes of the source that are not given here. No end group written: not given here.

What was measured:
[1] = biological target: T1, Angiotensin-converting enzyme (ACE) (Sus scrofa, UniProt F1RRW5); experiment: ACE inhibition activity determination (HHL substrate, colorimetric); assay type: biochemical, pig; details: for ACE inhibition % (before GI digestion): sample 0.1 mg of peptides/ml, 5 mM HHL, pH 8.3, 37°C, 30 min, absorbance 410 nm, mean ± SD, n = 3
T1 construct: Angiotensin-converting enzyme (ACE) was extracted and purified from pig lung tissues; from tissue; host or cells: pig lung
T1 sequence (F1RRW5 34-1309): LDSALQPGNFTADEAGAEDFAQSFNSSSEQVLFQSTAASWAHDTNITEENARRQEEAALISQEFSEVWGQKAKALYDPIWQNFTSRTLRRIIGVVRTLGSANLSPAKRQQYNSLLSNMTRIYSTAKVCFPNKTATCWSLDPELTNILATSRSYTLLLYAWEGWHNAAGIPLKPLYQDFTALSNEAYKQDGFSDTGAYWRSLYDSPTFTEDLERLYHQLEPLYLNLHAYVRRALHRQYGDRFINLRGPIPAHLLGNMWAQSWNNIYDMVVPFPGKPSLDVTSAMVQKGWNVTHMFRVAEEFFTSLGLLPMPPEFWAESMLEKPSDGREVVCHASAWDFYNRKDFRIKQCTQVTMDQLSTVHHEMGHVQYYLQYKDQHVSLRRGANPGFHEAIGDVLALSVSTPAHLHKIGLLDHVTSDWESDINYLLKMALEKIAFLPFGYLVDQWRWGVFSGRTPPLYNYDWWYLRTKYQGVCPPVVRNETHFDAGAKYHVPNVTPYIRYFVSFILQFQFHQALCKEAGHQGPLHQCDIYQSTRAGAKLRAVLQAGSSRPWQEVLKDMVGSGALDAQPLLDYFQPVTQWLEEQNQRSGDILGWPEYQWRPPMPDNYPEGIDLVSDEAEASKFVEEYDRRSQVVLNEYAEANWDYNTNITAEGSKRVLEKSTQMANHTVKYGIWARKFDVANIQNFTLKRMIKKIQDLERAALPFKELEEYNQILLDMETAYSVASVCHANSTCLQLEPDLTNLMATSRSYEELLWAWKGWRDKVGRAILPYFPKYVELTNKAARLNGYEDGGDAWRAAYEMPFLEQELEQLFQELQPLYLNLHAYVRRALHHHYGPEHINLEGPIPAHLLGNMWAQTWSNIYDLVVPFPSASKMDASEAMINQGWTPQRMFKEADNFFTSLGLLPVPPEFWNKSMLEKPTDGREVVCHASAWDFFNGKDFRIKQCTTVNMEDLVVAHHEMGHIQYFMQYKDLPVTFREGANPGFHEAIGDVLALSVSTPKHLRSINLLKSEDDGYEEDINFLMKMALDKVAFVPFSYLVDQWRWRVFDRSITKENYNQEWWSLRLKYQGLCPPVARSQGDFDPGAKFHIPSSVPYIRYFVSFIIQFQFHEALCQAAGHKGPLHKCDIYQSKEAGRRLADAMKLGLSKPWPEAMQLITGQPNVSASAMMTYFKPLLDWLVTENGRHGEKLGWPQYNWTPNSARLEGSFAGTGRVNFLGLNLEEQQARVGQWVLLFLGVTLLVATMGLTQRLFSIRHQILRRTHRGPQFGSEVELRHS
Source text: Moth bean seeds (MBS-27 variety) were obtained from Mahatma Phule Krishi Vidyapeeth (MPKV), Rahuri, Maharashtra. Angiotensin-converting enzyme (ACE) was extracted and purified from pig lung tissues according to the protocol described by Abdulazeez Mansurah et al. ([19]). Pig lung tissues were brought from a local slaughterhouse (Deonar Abattoir, Mumbai). Pepsin (1,000 U/mg, from porcine), pancreatin 3x (3 NF/USP, from porcine pancreas), trypsin (>2,000 U/g, from bovine pancreas), and papain (from papaya latex) were purchased from HiMedia Laboratories Pvt. Ltd., Mumbai. HHL (N-Hippuryl- His- Leu hydrate) and captopril were purchased from Sigma–Aldrich Chemicals Private Limited, Bangalore, India. All the chemicals used were of analytical grade.
(§1) Angiotensin-converting enzyme (ACE) inhibition activity was performed according to Jimsheena et al. ([23]), with minor modifications. In brief, 10 μl (0.1 mg of peptides/ml) of the sample was first incubated with 10 μl of ACE at 37°C for 5 min. Later, 30 μl of 50 mM phosphate buffer (pH 8.3) containing 150 mM NaCl and 50 μl of 5 mM HHL was added and mixed completely. The reaction mixture was kept for incubation in a water bath at 37°C for 30 min. The reaction was terminated by adding 100 μl of 1 M HCl. Subsequently, 200 μl of pyridine and 100 μl of benzene sulfonyl chloride (BSC) were added sequentially to the solution and vortexed for 10 s. The reaction mixture was, then, cooled on ice, and the absorbance was measured at 410 nm using a spectrophotometer. Captopril was used as a reference for comparison. ACE inhibition activity (%) was calculated as follows:
ACE inhibition % = (1− As/Ac) x 100
where As is the absorbance of the mixture containing the sample, and Ac is the absorbance of the mixture without inhibitor at 410 nm. IC50 values were determined for each fraction using a plot of ACE activity vs. inhibitor concentration.

[2] = biological target: T1, Angiotensin-converting enzyme (ACE); experiment: Gastrointestinal digestion simulation (SGF, SIF) followed by ACE inhibition assay; assay type: in vitro ADME, pig; set-up: increase in ACE inhibitory activity after intestinal digestion simulation / increase in ACE inhibitory activity due to cleavage by pepsin / ACE inhibitory activity decreased to (% of initial) following intestinal digestion simulation: concentration or dose not given beside the values; details: for ACE inhibition (%) after SGF: after gastric phase: simulated gastric fluid, pepsin 2,000U/ml, pH 2.5, 2 h; for ACE inhibition (%) after SGF / ACE inhibition (%) After SIF: 37°C, read-out ACE inhibition, mean ± SD, n = 3; for ACE inhibition (%) After SIF: after intestinal phase: simulated intestinal fluid, pancreatin 100U/ml, bile juice, pH 8, 2 h, following gastric phase; for increase in ACE inhibitory activity due to cleavage by pepsin: after gastric phase
Protocol: as §1, with “follows: […]” for “follows:”
The peptides synthesized were subjected to GI digestion simulation, as per the procedure described by Minekus et al. ([24]), with minor modifications. Bile juice was prepared according to Versantvoort et al. ([25]). Three steps of digestion (the mouth, stomach, and small intestine) were simulated, and the fluid was prepared to mimic physiological conditions. The composition of the simulated fluid is presented in Supplementary Table S2. The pH of the solution was adjusted by using 5 N NaOH and 6 N HCl. The digestion process was carried out using a stirring water bath at 37°C. Sampling was carried out after each step of digestion, and % ACE inhibition and degree of hydrolysis were calculated. Enzymes were inactivated by heating the fraction at 90°C for 10 min., followed by centrifugation at 10,000 g at 4°C for 15 min. The supernatant obtained was stored at −20°C for later study.

[3] = biological target: T1, Angiotensin-converting enzyme (ACE); experiment: ACE inhibition kinetics (Lineweaver-Burk plot, Dixon plot); assay type: biochemical, pig; details: HHL 1 to 7.5 mM, peptide 5 and 10 μM
Protocol: The mechanism of ACE inhibition by a peptide showing the lowest IC50 value was identified by the rate of HHL hydrolysis measured over a range of concentrations (1 to 7.5 mM) by varying concentrations of inhibitory peptide (5 and 10 μM). The analysis was carried out by using a double reciprocal Lineweaver–Burk plot, to determine the mode of ACE inhibition, Michaelis–Menten constant (Km), and the maximum velocity (Vmax). The inhibitor constant (Ki) was determined by the Dixon plot.

[4] = relative to activity before GI digestion

Substance	ACE inhibition % (before GI digestion) ([1]; synthesized peptide)	ACE inhibition (%) after SGF [2]	ACE inhibition (%) After SIF [2]	other results
AENNQR [pp-25]	11.8 ± 2.9^i %	9.8 ± 2.8^i %	14.5 ± 0.5^h %	
FPPPKVIQ [pp-28]	93.4 ± 1.7^a %	90.5 ± 4.6^a %	59.6 ± 0.3^b %	IC50 ([1]; purification steps of ACE-inhibitory peptide, read-out: IC50 (μg/ml) (converted)): 216 nM; IC50 ([1]; synthesized peptide, before GI digestion, read-out: IC50 of ACE inhibition): 240 nM; IC50 ([2]; after GI digestion simulation (digestion by trypsin in intestinal phase)): 20000 nM; ACE inhibition (%) After SIF ([2]; listed as FPPPKVIQ): ~ 59%; Ki [3]: 810 nM
GDTGRQQ [pp-1]	21.8 ±2.3^g %	24.0 ± 5.7^g %	7.6 ± 1.2^j %	ACE inhibitory activity decreased to (% of initial) following intestinal digestion simulation [2, 4]: 35%
HDTGRQH [pp-8]	12.1 ±5.5^i %	11.8 ± 1.3^i %	21.3 ± 0.3^g %	
HVDSGK [pp-18]	8.2 ± 4.3^i %	9.6 ± 0.5^i %	15.3 ± 3.6^h %	increase in ACE inhibitory activity after intestinal digestion simulation [2, 4]: 86%
IEPLPPR [pp-16]	36.0 ± 1.9^e %	30.0 ± 0.4^f %	33.6 ± 3.2^f %	
NNPHR [pp-24]	47.1 ±6.7^d %	41.4 ± 2.2^d %	15.0 ± 0.6^h %	reduction in ACE inhibitory activity after intestinal digestion simulation [2, 4]: 68%
TGDTGR [pp-6]	3.9 ± 5.5^k %	3.9 ± 1.3^k %	4.2 ± 1.3^k %	
TGDTGRQH [pp-4]	16.5 ± 2.1^g %	18.0 ± 2.9^g %	33.6 ± 1.2^f %	increase in ACE inhibitory activity after intestinal digestion simulation [2, 4]: 103%
VEPLPPR [pp-15]	55.9 ± 1.3^c %	51.0 ± 3.4^c %	52.3 ± 3.8^c %	

More lines, main results first:

ACE inhibition % (before GI digestion) ([1]; synthesized peptide)	ACE inhibition (%) after SGF [2]	ACE inhibition (%) After SIF [2]	Substance	other results
13.1 ± 4.7^h %	15.1 ± 0.6^h %	15.6 ± 1.9^h %	ATDETGSK [pp-33]	
34.3 ± 7.7^e %	31.1 ± 0.7^e %	6.2 ± 4.3^j %	HPGDDKS [pp-30]	ACE inhibitory activity decreased to (% of initial) following intestinal digestion simulation [2, 4]: 18%
23.6 ± 6.9^g %	21.1 ± 0.8^g %	19.0 ± 1.8^g %	ISGGSSR [pp-39]	
6.4 ± 1.0^j %	21.5 ± 3.4^g %	18.8 ± 9.9^g %	LTAEHPVV [pp-44]	increase in ACE inhibitory activity due to cleavage by pepsin [2, 4]: 236%
41.9 ± 6.9^d %	74.3 ± 2.2^b %	17.9 ± 1.8^g %	TFAPGF [pp-45]	increase in ACE inhibitory activity due to cleavage by pepsin [2, 4]: 77%
